{
  "source": "paper PMC8052528",
  "about": "(Protein & Cell, 2021)",
  "key": {"[1]": {"details": "Phase 1 and Phase 2 clinical trials; ref Satoh et al., 2009; Kelly et al., 2013; cited from earlier work"}, "SARS-CoV-2": {"system": "SARS-CoV-2", "assay_type": "cell-based"}},
  "data": [
    {"smiles": "COCCn1c2c([n+](Cc3cnccn3)c1C)C(=O)c1ccccc1C2=O", "note": "[YM155]", "values": [
      {"measurement": "tolerability in humans", "setting": "[1]", "result": "well tolerated"}
    ]},
    {"smiles": "C[C@H]1COC2=C1C(=O)C(=O)c1c2ccc2c1CCCC2(C)C", "note": "[cryptotanshinone]", "values": [
      {"measurement": "intracellular NP level versus control group (10 μmol/L chloroquine)", "setting": "SARS-CoV-2", "result": "comparable NP levels with the control group"}
    ]},
    {"smiles": "Cc1coc2c1C(=O)C(=O)c1c-2ccc2c(C)cccc12", "note": "[tanshinone I]", "values": [
      {"measurement": "intracellular NP level versus control group (10 μmol/L chloroquine)", "setting": "SARS-CoV-2", "result": "comparable NP levels with the control group"}
    ]}
  ]
}
